The source of these data is ChEMBL document CHEMBL4385650, “X-ray crystal structures, density functional theory and docking on deacetylase enzyme for antiproliferative activity of hispolon derivatives on HCT116 colon cancer” (Bioorg Med Chem, 2019).

The assay concerns HCT-116. Put plainly: Antiproliferative activity against human HCT116 cells assessed as reduction in cell viability incubated for 72 hrs by MTT assay. In kind it is functional, cell-based. The following applies: HCT-116, 72 h.

On to `CC(=O)CC(=O)/C=C/c1ccc(O)cc1`, for which the IC50 worked out at 36 µM.

With `COc1cc(CCC(=O)CC(C)=O)ccc1O`, the IC50 came out at 182 µM.

For `COc1cc(OC)c(CCC(=O)CC(C)=O)c(OC)c1`, the IC50 amounted to 139 µM.

On to `COc1cc(OC)c(/C=C/C(=O)CC(C)=O)c(OC)c1`, for which the IC50 amounted to 8.5 µM.

With `COc1cc(/C=C/C(=O)CC(C)=O)cc(OC)c1O`, the IC50 came out at 24.7 µM.

`CC(=O)CC(=O)CCc1ccc(O)cc1`: the IC50 turned out to be 213 µM.

For the molecule `COc1cc(CCC(=O)CC(C)=O)cc(OC)c1OC`, the IC50 was 138 µM.

Take `COc1ccc(/C=C/C(=O)CC(C)=O)cc1OC`: the IC50 was determined as 4.7 µM.

Turning to `CC(=O)CC(=O)/C=C/c1ccc(O)c(O)c1`, the IC50 was determined as 5.2 µM.

For `COc1ccc(CCC(=O)CC(C)=O)cc1OC`, the IC50 turned out to be 215 µM.

Regarding `COc1cc(/C=C/C(=O)CC(=O)/C=C/c2ccc(O)c(OC)c2)ccc1O` [CURCUMIN], the concentration for half-maximal inhibition (IC50) came to 10.5 µM.

On to `COc1cc(/C=C/C(=O)CC(C)=O)ccc1O`, for which the IC50 is 1.4 µM.

Consider `COc1cc(/C=C/C(=O)CC(C)=O)cc(OC)c1OC`, for which the IC50 came to 28.8 µM.
